Reference: ChEMBL document CHEMBL5038618, “Discovery of PT-65 as a highly potent and selective Proteolysis-targeting chimera degrader of GSK3 for treating Alzheimer's disease” (Eur J Med Chem, 2021)
The source made the active and inactive calls. The calls are words filed in the database; no cut-off is given here.

Assays:
SH-SY5Y [1] = assay: Effect on tau protein expression in human SH-SY5Y cells assessed as reduction on phosphorylated tau Ser396 residue level at 62.5 to 500 nM pretreated for 2 hrs followed by Abeta42 coincubation for 72 hrs by Westernblot analysis; format: functional, cell-based; details: dose 62.5-500 nM, time 74.0 hrs
Rattus norvegicus [2] = assay: Antialzheimer activity against hippocampal tissue of okadaic acid induced Sprague-Dawley rat assessed as reduction on GSK3beta protein level at 200 to 600 uM, iv by immunohistochemical staining based analysis; format: functional, organism-based; details: Hippocampus, dose 200-600 µM
[3] = molecular target: T1, Protein cereblon/Glycogen synthase kinase-3 beta (Homo sapiens, UniProt P49841+Q96SW2); assay: Protac activity at CRBN/GSK3beta in human SH-SY5Y cells assessed as GSK3beta degradation at 1 uM pretreated with MG-132 for 2 hrs followed by compound addition and measured after 24 hrs; format: cell-based
T1 sequence (P49841 whole entry, looked up): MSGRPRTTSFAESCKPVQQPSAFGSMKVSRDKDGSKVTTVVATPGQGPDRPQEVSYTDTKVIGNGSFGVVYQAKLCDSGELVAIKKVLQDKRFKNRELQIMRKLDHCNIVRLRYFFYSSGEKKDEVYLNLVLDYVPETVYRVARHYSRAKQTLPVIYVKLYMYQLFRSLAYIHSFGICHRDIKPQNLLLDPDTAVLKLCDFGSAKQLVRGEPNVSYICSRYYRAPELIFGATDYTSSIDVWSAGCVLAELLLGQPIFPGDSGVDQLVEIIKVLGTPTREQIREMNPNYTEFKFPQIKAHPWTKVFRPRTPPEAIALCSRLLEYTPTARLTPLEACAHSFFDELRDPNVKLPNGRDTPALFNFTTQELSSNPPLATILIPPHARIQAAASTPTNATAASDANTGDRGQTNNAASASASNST
T1 sequence (Q96SW2 whole entry, looked up): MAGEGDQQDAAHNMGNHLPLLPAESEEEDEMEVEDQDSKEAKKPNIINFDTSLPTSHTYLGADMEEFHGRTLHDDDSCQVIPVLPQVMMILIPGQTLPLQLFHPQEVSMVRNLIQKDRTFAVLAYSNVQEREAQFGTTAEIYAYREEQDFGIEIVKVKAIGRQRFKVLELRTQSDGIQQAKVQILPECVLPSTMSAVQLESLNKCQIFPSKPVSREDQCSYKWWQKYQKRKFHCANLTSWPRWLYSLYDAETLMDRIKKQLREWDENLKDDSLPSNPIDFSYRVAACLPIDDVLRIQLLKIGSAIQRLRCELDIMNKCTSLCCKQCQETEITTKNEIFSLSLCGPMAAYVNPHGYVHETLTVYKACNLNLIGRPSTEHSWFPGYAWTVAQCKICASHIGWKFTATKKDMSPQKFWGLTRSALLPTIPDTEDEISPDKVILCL

SH-SY5Y [4] = assay: Induction of apoptosis in human SH--SY5Y cells assessed as late apoptotic cells at 250 nM preincubated for 2 hrs followed by coincubation with Abeta42 and measured after 72 hrs by Annexin V-FITC/propidium iodide staining based flow cytometry (Rvb=3.5%); format: functional; details: time 74 hrs
Rattus norvegicus [5] = assay: Antialzheimer activity against hippocampal tissue of okadaic acid induced Sprague-Dawley rat assessed as reduction on GSK3beta protein level at 200 to 600 uM, iv by western blot assay; format: functional, organism-based; details: Hippocampus, dose 200-600 µM
SH-SY5Y [6] = assay: Induction of apoptosis in human SH-SY5Y cells assessed as necrotic cells at 62.5 nM preincubated for 2 hrs followed by coincubation with Abeta42 and measured after 72 hrs by Annexin V-FITC/propidium iodide staining based flow cytometry (Rvb=0.7%); format: functional; details: time 74 hrs
SH-SY5Y [7] = assay: Downregulation of GSK3beta expression in human SH-SY5Y cells at 62.5 to 500 nM pretreated for 2 hrs followed by Abeta42 coincubation for 72 hrs by Westernblot analysis; format: functional, cell-based; details: dose 62.5-500 nM, time 74.0 hrs
[8] = Downregulation of GSK3beta expression in human SH-SY5Y cells accessed as fold change in GSK3beta expression at 1 uM measured after 4 hrs by proteomic analysis; format: functional
hERG (KCNH2) = hERG (KCNH2) (Homo sapiens, UniProt Q12809); assay: Inhibition of hERG expressed in CHO cells at 40 uM by whole cell patch clamp assay; format: cell-based; details: CHO cells that express hERG
Chain of hERG (KCNH2) (Q12809 whole entry): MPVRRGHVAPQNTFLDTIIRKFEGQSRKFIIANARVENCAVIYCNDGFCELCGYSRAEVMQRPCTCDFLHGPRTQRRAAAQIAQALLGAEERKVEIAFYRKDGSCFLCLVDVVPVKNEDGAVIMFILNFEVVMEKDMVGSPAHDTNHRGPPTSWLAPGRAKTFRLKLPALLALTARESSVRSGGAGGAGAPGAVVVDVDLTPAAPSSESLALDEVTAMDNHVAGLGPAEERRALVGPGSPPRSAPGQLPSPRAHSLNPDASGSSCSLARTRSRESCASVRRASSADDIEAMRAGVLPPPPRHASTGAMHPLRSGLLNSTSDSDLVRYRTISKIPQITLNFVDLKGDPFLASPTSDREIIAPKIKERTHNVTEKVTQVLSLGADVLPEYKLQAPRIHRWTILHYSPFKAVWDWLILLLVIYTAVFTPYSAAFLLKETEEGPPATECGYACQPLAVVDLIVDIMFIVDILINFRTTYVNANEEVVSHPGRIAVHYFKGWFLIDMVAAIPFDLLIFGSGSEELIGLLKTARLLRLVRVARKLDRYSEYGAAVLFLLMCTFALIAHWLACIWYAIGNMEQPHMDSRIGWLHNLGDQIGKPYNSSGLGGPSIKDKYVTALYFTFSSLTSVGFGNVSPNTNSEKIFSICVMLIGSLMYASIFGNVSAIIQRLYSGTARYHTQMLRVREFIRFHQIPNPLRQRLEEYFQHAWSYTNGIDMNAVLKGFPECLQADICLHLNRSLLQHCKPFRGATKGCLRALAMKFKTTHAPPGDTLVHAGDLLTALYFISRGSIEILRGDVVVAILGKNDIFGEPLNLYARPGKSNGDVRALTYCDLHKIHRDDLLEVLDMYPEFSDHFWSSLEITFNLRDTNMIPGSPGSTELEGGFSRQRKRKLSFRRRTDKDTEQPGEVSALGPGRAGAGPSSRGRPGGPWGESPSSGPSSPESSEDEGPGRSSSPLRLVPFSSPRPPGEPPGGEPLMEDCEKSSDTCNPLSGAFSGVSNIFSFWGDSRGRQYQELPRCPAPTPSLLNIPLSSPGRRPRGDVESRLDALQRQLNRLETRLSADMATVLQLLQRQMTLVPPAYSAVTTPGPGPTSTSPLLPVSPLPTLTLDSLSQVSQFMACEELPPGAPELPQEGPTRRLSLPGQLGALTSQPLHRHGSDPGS

SH-SY5Y [9] = assay: Effect on tau protein expression in human SH-SY5Y cells assessed as reduction on phosphorylated tau threonine205 residue level at 62.5 to 500 nM pretreated for 2 hrs followed by Abeta42 coincubation for 72 hrs by Westernblot analysis; format: functional, cell-based; details: dose 62.5-500 nM, time 74.0 hrs
[10] = molecular target: Glycogen synthase kinase-3 beta (Homo sapiens, UniProt P49841); assay: Binding affinity to recombinant GSK3beta (unknown origin) assessed as dissociation […] constant upto 0.00975 uM by SPR analysis
Chain of Glycogen synthase kinase-3 beta (P49841 whole entry): as the sequence (P49841 whole entry, looked up) above

SH-SY5Y [11] = assay: Induction of apoptosis in human SH-SY5Y cells assessed as early apoptotic cells at 125 nM preincubated for 2 hrs followed by coincubation with Abeta42 and measured after 72 hrs by Annexin V-FITC/propidium iodide staining based flow cytometry (Rvb=1%); format: functional; details: time 74 hrs
SH-SY5Y [12] = assay: Cytotoxicity against human SH-SY5Y cells assessed as increase in cell viability at 62.5 to 250 nM pretreated for 2 hrs followed by Abeta42 addition and measured after 72 hrs by CCK8 assay; format: functional, cell-based; details: dose 62.5-250 nM, time 74.0 hrs
[13] = molecular target: T1, Protein cereblon/Glycogen synthase kinase-3 beta; assay: Protac activity at CRBN/GSK3beta in human SH-SY5Y cells assessed as GSK3beta degradation at 1 uM pretreated with pomalidomide for 2 hrs followed by compound addition and measured after 24 hrs; format: cell-based
[14] = molecular target: T1, Protein cereblon/Glycogen synthase kinase-3 beta; assay: Protac activity at CRBN/GSK3beta in human SH-SY5Y cells assessed as induction of GSK3beta degradation at 1 uM measured after 24 hrs; format: cell-based

Nc1ncc(-c2ccc(S(=O)(=O)N3CCN(CCCCc4cn(CCOCCOCCOCCOCCOCCNc5cccc6c5C(=O)N(C5CCC(=O)NC5=O)C6=O)nn4)CC3)cc2)nc1C(=O)Nc1cccnc1 (stereo not given)
Activity (SH-SY5Y [1]): Dose-Dependent Effect
Activity (Rattus norvegicus [2]): Active
Activity [3]: inactive
Activity (SH-SY5Y [4]): 6.5%
Activity (Rattus norvegicus [5]): Active
Activity (SH-SY5Y [6]): 6.7%
Activity (SH-SY5Y [7]): Dose-Dependent Effect
fold change (FC) [8]: 0.33
inhibition at 40 µM (hERG (KCNH2)): 15.4%
Activity (SH-SY5Y [9]): Dose-Dependent Effect
Kd [10]: 0.0253 s⁻¹
Activity (SH-SY5Y [11]): 1.2%
Activity (SH-SY5Y [12]): inactive
Activity [13]: inactive
Activity [14]: 90.8%
